Test systems include UO-31 renal; MALME-3M melanoma; RPMI-8226 leukemia; SF-268 CNS; SK-MEL-28 melanoma; RXF 393 renal; OVCAR-4 ovarian; HL-60(TB) leukemia; UACC-257 melanoma; OVCAR-3 ovarian.
What all share (assay): NCI tumour cell line growth inhibition, 48 h

Molecules are shown by their SMILES. Values joined by “and” are separate entries in the source; they are usually repeats but may differ in a detail not shown here. Equal values may be shown once.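 Method: 48-hour compound exposure of cells in 96-well plates, five concentrations, linear interpolation of endpoints. At the GI50, growth is halved. TGI is the concentration that stops growth completely.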 Where a SMILES comes first, the peptide text is derived from it. [ ]: non-standard residue; d: D form.

With `CSc1nnnc2ccccc12`, the TGI in the assay on UO-31 renal, with MALME-3M melanoma, in the assay on RPMI-8226 leukemia, in the assay with SF-268 CNS, in the assay on SK-MEL-28 melanoma and in the assay with RXF 393 renal was more than 100 µM in each case. The TGI in the assay on OVCAR-4 ovarian, in the assay on HL-60(TB) leukemia, in the assay with UACC-257 melanoma and in the assay on OVCAR-3 ovarian was more than 100 µM in each case.

With `O=S(=O)(O)c1cc(S(=O)(=O)O)c2cc(N=Nc3ccc(N=Nc4ccc(/C=C/c5ccc(N=[N+]([O-])c6ccc(/C=C/c7ccc(N=Nc8ccc(N=Nc9ccc%10cc(S(=O)(=O)O)cc(S(=O)(=O)O)c%10c9)cc8)cc7S(=O)(=O)O)c(S(=O)(=O)O)c6)cc5S(=O)(=O)O)c(S(=O)(=O)O)c4)cc3)ccc2c1`, the TGI was more than 100 µM in the assay with UO-31 renal; more than 100 µM in the assay with MALME-3M melanoma; more than 100 µM in the assay with RPMI-8226 leukemia; more than 100 µM with SF-268 CNS; more than 100 µM in the assay on SK-MEL-28 melanoma; more than 78.7 µM with RXF 393 renal. Also, the TGI was more than 100 µM with OVCAR-4 ovarian, more than 100 µM in the assay with HL-60(TB) leukemia, more than 100 µM in the assay on UACC-257 melanoma and more than 31.6 µM in the assay with OVCAR-3 ovarian.

Take `Cc1ccc(/C=c2\c(=O)[nH]c3nc4ccccc4c(=O)n23)cc1`: the TGI was more than 100 µM in the assay with UO-31 renal; more than 100 µM in the assay with MALME-3M melanoma; more than 100 µM with RPMI-8226 leukemia; more than 100 µM in the assay on SF-268 CNS; more than 100 µM in the assay with SK-MEL-28 melanoma; 98.7 µM with RXF 393 renal. Also, the TGI with OVCAR-4 ovarian, in the assay with HL-60(TB) leukemia, with UACC-257 melanoma and with OVCAR-3 ovarian was more than 100 µM in each case.

Regarding `N#CC1=C(O)NC(O)=C(C#N)C1c1c(Cl)cccc1Cl`, the TGI is more than 100 µM in the assay with UO-31 renal; more than 100 µM in the assay with MALME-3M melanoma; more than 100 µM in the assay with RPMI-8226 leukemia; more than 100 µM in the assay on SF-268 CNS; more than 100 µM in the assay with SK-MEL-28 melanoma; 28.7 µM with RXF 393 renal. The TGI with OVCAR-4 ovarian, with HL-60(TB) leukemia, in the assay on UACC-257 melanoma and with OVCAR-3 ovarian was more than 100 µM each time.

Consider `C=CC(=O)N1C/C(=C\c2ccc(OC)cc2)C(=O)/C(=C/c2ccc(OC)cc2)C1`, for which the TGI was 3.52 µM in the assay on UO-31 renal; 8.4 µM in the assay on MALME-3M melanoma; more than 100 µM in the assay with RPMI-8226 leukemia; 17.1 µM in the assay on SF-268 CNS; 10.8 µM in the assay on SK-MEL-28 melanoma; 3.23 µM in the assay with RXF 393 renal. The TGI in the assay on OVCAR-4 ovarian was 13.4 µM; in the assay with HL-60(TB) leukemia, more than 100 µM; with UACC-257 melanoma it was more than 31.6 µM; in the assay on OVCAR-3 ovarian, 5.67 µM.

For the compound `CC1(C)CCCCCC(O)C(O)CCC(C)(C)C1=O` (centres undefined), the TGI with UO-31 renal, with MALME-3M melanoma, in the assay with RPMI-8226 leukemia, in the assay on SF-268 CNS, in the assay on SK-MEL-28 melanoma and with RXF 393 renal was more than 100 µM each time. Also, the TGI with OVCAR-4 ovarian, in the assay on HL-60(TB) leukemia, in the assay with UACC-257 melanoma and with OVCAR-3 ovarian was more than 100 µM each time.

With `COc1ccc(NC(=O)CSC(=O)c2ccccc2)c(SCCSSCCSc2cc(OC)ccc2NC(=O)CSC(=O)c2ccccc2)c1`, the TGI in the assay with UO-31 renal was more than 100 µM; with MALME-3M melanoma, more than 100 µM; with RPMI-8226 leukemia it was more than 100 µM; with SF-268 CNS it was more than 100 µM; with RXF 393 renal, more than 100 µM; in the assay on OVCAR-4 ovarian, 83.7 µM. Besides, the TGI in the assay on HL-60(TB) leukemia, with UACC-257 melanoma and in the assay on OVCAR-3 ovarian was more than 100 µM each time.

`N#Cc1ccc(-c2ccc(Cl)cc2)n(C2OC(CO)C(O)C(O)C2O)c1=S` (centres undefined): the TGI in the assay on UO-31 renal was more than 100 µM; in the assay on MALME-3M melanoma it was more than 100 µM; in the assay on RPMI-8226 leukemia it was more than 100 µM; with SF-268 CNS, more than 100 µM; with SK-MEL-28 melanoma, more than 100 µM; in the assay on RXF 393 renal, > 100 µM and 51 µM. Moreover, the TGI in the assay with OVCAR-4 ovarian, with HL-60(TB) leukemia, in the assay on UACC-257 melanoma and in the assay with OVCAR-3 ovarian was more than 100 µM each time. Also, the GI50 with SF-268 CNS was > 100 µM and 39.6 µM; in the assay with RXF 393 renal, > 100 µM and 18.7 µM.

As for `CCCCCCCCCCCC(=O)N(CCCCCCCCC)CC(O)C(O)C(OC1OC(CO)C(O)C(O)C1O)C(O)CO` (centres undefined), the TGI in the assay with UO-31 renal amounted to 30.9 µM; in the assay on MALME-3M melanoma it was 37.7 µM; with RPMI-8226 leukemia, 57.1 µM; in the assay with SF-268 CNS, 39.3 µM; in the assay with SK-MEL-28 melanoma it was 35.2 µM; with RXF 393 renal, 50 µM. In addition, the TGI in the assay on OVCAR-4 ovarian was found to be 49.6 µM; in the assay with HL-60(TB) leukemia, 45.8 µM; with UACC-257 melanoma, 31.4 µM; in the assay with OVCAR-3 ovarian, 40.3 µM.

On to `CCN(CC)/N=C\c1c2ccccc2cc2ccccc12`, for which the TGI with UO-31 renal is more than 100 µM; in the assay with MALME-3M melanoma, more than 100 µM; with RPMI-8226 leukemia, 77.1 µM; with SF-268 CNS, more than 100 µM; with SK-MEL-28 melanoma, more than 100 µM; with RXF 393 renal, 57.3 µM. The TGI is more than 100 µM with OVCAR-4 ovarian, more than 100 µM with HL-60(TB) leukemia and 72.4 µM with UACC-257 melanoma.

`CC(C)C[C@H](NC(=O)[C@H](CC(C)C)NC(=O)[C@@H](Cc1c[nH]c2ccccc12)NC(=O)[C@H](Cc1ccccc1)NC(=O)[C@@H](Cc1c[nH]c2ccccc12)NC(=O)[C@H](CCC(N)=O)NC(=O)[C@@H](CCC(N)=O)NC(=O)[C@@H]1CCCN1C(=O)[C@@H](CCCCN)NC(=O)[C@H]1CCCN1C(=O)[C@H](N)CCCN=C(N)N)C(N)=O` (H-[dR][dP][dK]P[dQ]Q[dW]F[dW]LL-NH2): the TGI was more than 100 µM in the assay on UO-31 renal; more than 31.6 µM with MALME-3M melanoma; more than 100 µM in the assay on RPMI-8226 leukemia; more than 100 µM in the assay with SF-268 CNS; more than 100 µM with SK-MEL-28 melanoma; more than 100 µM with RXF 393 renal. Further, the TGI with OVCAR-4 ovarian, in the assay with HL-60(TB) leukemia, with UACC-257 melanoma and in the assay with OVCAR-3 ovarian was more than 100 µM throughout.

`O=C1C(Cl)N(c2ccc([N+](=O)[O-])cc2)C1c1c[nH]c2ccccc12` (centres undefined): the TGI with UO-31 renal, in the assay with MALME-3M melanoma, in the assay with RPMI-8226 leukemia, with SF-268 CNS, in the assay with SK-MEL-28 melanoma and in the assay with RXF 393 renal was more than 100 µM throughout. For the same compound, the TGI in the assay with OVCAR-4 ovarian, with HL-60(TB) leukemia, in the assay on UACC-257 melanoma and with OVCAR-3 ovarian was more than 100 µM in each case.

For `Clc1nc2nc(N3CCNCC3)nc(N3CCCC3)c2[nH]1`, the TGI was determined as 29.6 µM with UO-31 renal; 36.3 µM with MALME-3M melanoma; 48 µM in the assay with RPMI-8226 leukemia; 40.4 µM with SF-268 CNS; 39.6 µM with SK-MEL-28 melanoma; 27.9 µM in the assay on RXF 393 renal. Besides, the TGI in the assay on OVCAR-4 ovarian was 35 µM; in the assay with HL-60(TB) leukemia, 42.8 µM; in the assay with UACC-257 melanoma, 37.1 µM; in the assay with OVCAR-3 ovarian it was 33.9 µM.

As for `CCCCCc1cc2cc3c(c(O)c2c(=O)[nH]1)C1(CCC3)C(=O)c2c(O)ccc(O)c2C1=O`, the TGI in the assay with UO-31 renal, in the assay with MALME-3M melanoma, with RPMI-8226 leukemia, in the assay with SF-268 CNS, in the assay with SK-MEL-28 melanoma and in the assay with RXF 393 renal was more than 100 µM throughout. Moreover, the TGI in the assay on OVCAR-4 ovarian, with HL-60(TB) leukemia, in the assay on UACC-257 melanoma and in the assay on OVCAR-3 ovarian was more than 100 µM throughout.

Consider `Cc1ccc2sc3c(NCCCN)nc4ccccc4c3c(=O)c2c1`, for which the GI50 with UO-31 renal was 1510 nM; with MALME-3M melanoma, 1740 nM; with RPMI-8226 leukemia it was 2410 nM; in the assay with SF-268 CNS, 1.74 µM; with SK-MEL-28 melanoma it was 1780 nM; in the assay with RXF 393 renal it was 1.52 µM. Besides, the GI50 in the assay on OVCAR-4 ovarian is 2160 nM; in the assay on HL-60(TB) leukemia it was 2050 nM; with UACC-257 melanoma, 2040 nM; in the assay with OVCAR-3 ovarian, 1820 nM. The TGI in the assay with UO-31 renal is 2.98 µM; in the assay with MALME-3M melanoma, 3.3 µM; with RPMI-8226 leukemia, 5.5 µM; with SF-268 CNS it was 3.45 µM; in the assay with SK-MEL-28 melanoma it was 3.28 µM; with RXF 393 renal, 3.02 µM. Also, the TGI in the assay with OVCAR-4 ovarian was found to be 4.69 µM; with HL-60(TB) leukemia, 4.09 µM; in the assay on UACC-257 melanoma, 4.21 µM; in the assay on OVCAR-3 ovarian it was 3.32 µM.

Turning to `N#Cc1c(/C=C/c2ccccc2)c2c([nH]c1=S)CCCCC2`, the TGI in the assay on UO-31 renal, in the assay on MALME-3M melanoma, in the assay with RPMI-8226 leukemia, in the assay on SF-268 CNS, in the assay on SK-MEL-28 melanoma and in the assay with RXF 393 renal was more than 100 µM throughout. Moreover, the TGI in the assay on OVCAR-4 ovarian, with HL-60(TB) leukemia, in the assay on UACC-257 melanoma and in the assay with OVCAR-3 ovarian was more than 100 µM throughout.

Regarding `CCOP(=O)(OCC)C(Nc1ccc(Cl)cc1)c1ccc(F)cc1` (centres undefined), the TGI with UO-31 renal turned out to be 59.9 µM; in the assay on MALME-3M melanoma it was 42.3 µM; in the assay on RPMI-8226 leukemia it was 67.6 µM; in the assay with SF-268 CNS, 61.2 µM; in the assay with SK-MEL-28 melanoma it was 41.7 µM; in the assay on RXF 393 renal, 67.3 µM. For the same compound, the TGI with OVCAR-4 ovarian was more than 100 µM; in the assay with HL-60(TB) leukemia, 54.1 µM; in the assay on UACC-257 melanoma it was 44 µM; in the assay with OVCAR-3 ovarian, more than 100 µM.

Turning to `CC1(C)CC(=O)c2c(N)n[nH]c2C1`, the TGI with UO-31 renal, with MALME-3M melanoma, in the assay on RPMI-8226 leukemia, in the assay with SK-MEL-28 melanoma, with RXF 393 renal and in the assay with OVCAR-4 ovarian was more than 100 µM each time. Further, the TGI with HL-60(TB) leukemia, in the assay with UACC-257 melanoma and in the assay on OVCAR-3 ovarian was more than 100 µM in each case.
